# Data published in US20120095032A1, “METHODS FOR TREATING LEUKEMIA AND MYELODYSPLASTIC SYNDROME, AND METHODS FOR IDENTIFYING AGENTS FOR TREATING SAME” (Sanford-Burnham Medical Research Institute, priority 2007, published 2012).
# Columns and labels:
# HePTP [1] = biological target: T1, HePTP (Homo sapiens, UniProt P35236); assay: HePTP HTS primary screen (colorimetric pNPP / Biomol Green); assay type: biochemical; details: 20 μM compound; read-out: % Inhib. at 20 μM
# T1 sequence (P35236 1-360): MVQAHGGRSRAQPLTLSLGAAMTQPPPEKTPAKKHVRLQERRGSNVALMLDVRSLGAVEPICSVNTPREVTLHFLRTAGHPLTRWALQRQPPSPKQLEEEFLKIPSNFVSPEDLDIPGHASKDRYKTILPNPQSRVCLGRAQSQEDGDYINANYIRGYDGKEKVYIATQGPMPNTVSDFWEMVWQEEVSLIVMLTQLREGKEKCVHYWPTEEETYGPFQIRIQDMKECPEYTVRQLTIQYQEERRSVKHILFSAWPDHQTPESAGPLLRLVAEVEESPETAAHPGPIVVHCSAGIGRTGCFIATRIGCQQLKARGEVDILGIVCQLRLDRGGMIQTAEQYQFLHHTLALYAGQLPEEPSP
# From the text: (§1) The following assay can be conducted manually or can be carried out by a robotic station.
# For this assay, HePTP catalyzes the following reaction:
# wherein p-nitrophenyl phosphate serves as a substrate and is cleaved to form p-nitrophenol and phosphate. The liberated phosphate complexes with the Biomol Green™ reagent to provide a quantitative colorimetric value for the amount of substrate cleaved.
# (§2) Compounds are then serially diluted in 100% DMSO, and then diluted with water to 10% final DMSO concentration.
# (§3) The primary screening actives can then proceed to the dose-response confirmation stage.
# HePTP [2] = biological target: T1, HePTP; assay: HePTP dose-response confirmation screening; assay type: biochemical; details: for IC50: 10 concentrations, 2-fold serial dilution, pNPP substrate; for n / nH (Hill coefficient): Hill coefficient of the dose-response curve
# From the text: as §1, §2, §3
# * n represents the Hill coefficient. This coefficient is derived from the Hill equation which has the formula: […]
# wherein θ is the fraction of ligand binding sites filled, L is the inhibitor concentration, Ka is the inhibitor concentration producing half occupation of the ligand binding sites, and n is the Hill coefficient.
inhibition at 20 µM (HePTP [1]) [%],IC50 (HePTP [2]) [nM],n / nH (Hill coefficient) (HePTP [2]),Compound
102,2120,2.01,"Cc1ccc2c(c1C)NC(C(=O)O)C1CC=CC21 (stereo not drawn) [6,7-dimethyl-3a,4,5,9b-tetrahydro-3H-cyclopenta[c]quinoline-4-carboxylic acid]"
103,200,2.11,"O=C(O)C1Nc2c(O)cccc2C2C=CCC12 (stereo not drawn) [6-hydroxy-3a,4,5,9b-tetrahydro-3H-cyclopenta[c]quinoline-4-carboxylic acid]"
103,1280,1.54,"COc1cccc2c1NC(C(=O)O)C1CC=CC21 (stereo not drawn) [6-methoxy-3a,4,5,9b-tetrahydro-3H-cyclopenta[c]quinoline-4-carboxylic acid]"
103,280,2.97,"CCOC(=O)c1ccc2c(c1)C1C=CCC1C(C(=O)O)N2 (stereo not drawn) [8-(ethoxycarbonyl)-3a,4,5,9b-tetrahydro-3H-cyclopenta[c]quinoline-4-carboxylic acid]"
96.4,840,3.34,"O=C(Oc1ccccc1)c1ccc2c(c1)C1C=CCC1C(C(=O)O)N2 (stereo not drawn) [8-(phenoxycarbonyl)-3a,4,5,9b-tetrahydro-3H-cyclopenta[c]quinoline-4-carboxylic acid]"
102,410,2.41,"Cc1ccc2c(c1)C1C=CCC1C(C(=O)O)N2 (stereo not drawn) [8-methyl-3a,4,5,9b-tetrahydro-3H-cyclopenta[c]quinoline-4-carboxylic acid]"
81.2,2330,1.45,"COC(=O)c1ccccc1NC(=O)c1noc2ccccc12 [Methyl 2-(4-oxa-3-azabicyclo[3.3.0]octa-2,9-diene-2-carbonylamino)benzoate]"
99.7,700,2.49,"Cc1cc(NC(=O)Cc2cccs2)no1 [N-(5-methyl-1,2-oxazol-3-yl)-2-thiophen-2-ylacetamide]"

# Further lines, the compound ahead of its results:
Compound,inhibition at 20 µM (HePTP [1]) [%],IC50 (HePTP [2]) [nM],n / nH (Hill coefficient) (HePTP [2])
O=C(O)c1c[nH]c2ccc(S(=O)(=O)N3CCN(c4ccc(F)cc4)CC3)cc2c1=O [6-[4-(4-Fluorophenyl)piperazin-1-yl]sulfonyl-4-oxo-1H-quinoline-3-carboxylic acid],103,4660,2.66
"COc1ccc(OC)c(N2C(=O)[C@H]3C(c4ccccc4Cl)=NO[C@@H]3C2=O)c1 [(1S,5S)-2-(2-chlorophenyl)-7-(2,5-dimethoxyphenyl)-4-oxa-3,7-diazabicyclo[3.3.0]oct-2-ene-6,8-dione]",85.1,8250,2.27
"C/C(N)=C(\C#N)C(=O)CSc1nnc(Nc2c(C)cccc2C)s1 [(Z)-3-Amino-2-[2-[[5-[(2,6-dimethylphenyl)amino]-1,3,4-thiadiazol-2-yl]sulfanyl]acetyl]but-2-enenitrile]",77.9,30200,2.66
"CCCCC[C@H](O)/C=C/[C@H]1C=CC(=O)[C@@H]1C/C=C\CCCC(=O)O [(Z)-7-[(1R,2S)-2-[(E,3S)-3-Hydroxyoct-1-enyl]-5-oxo-1-cyclopent-3-enyl]hept-5-enoic acid]",57.3,13700,2.49
"CCOC(=O)C1CCN(C(=O)Nc2ccc3nc(-c4ccco4)c(-c4ccco4)nc3c2)CC1 [Ethyl 1-[[2,3-bis(2-furyl)quinoxalin-6-yl]carbamoyl]piperidine-4-carboxylate]",103,1120,1.95
"CCOC(=O)C(C)Sc1nc2c(c(=O)[nH]c(=O)n2C)n1C/C=C(/C)Cl (stereo not drawn) [Ethyl 2-[7-[(Z)-3-Chlorobut-2-enyl]-3-methyl-2,6-dioxo-purin-8-yl]sulfanylpropanoate]",55.4,8330,1.44
